From patent publication US8192962B2, “Processes for detecting toxic substances” (Daikin Industries, Ltd., priority 2001, dated 2012)

Tested on: Detoxification protein genes
Assay: DNA chip mRNA expression in yeast, detoxification protein genes (Table 8)
Format: cell-based, Saccharomyces cerevisiae S288C
Method in brief: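 First, S288C yeast grown in YPD at 25° C. are dosed in log phase with one toxicant (growth-inhibiting, not lethal) for 2 h. Next, total RNA is extracted and poly(A) mRNA isolated and reverse-transcribed with Cy3/Cy5-dUTP. Finally, whole-genome chip fluorescence is read relative to unexposed cells.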

## C=CC=O [(14), acrolein]
Yeast gene YBL064C
  The level of expressed mRNA in the presence of chemical substance/The level of expressed mRNA in the absence of chemical substance: 5.0
Yeast gene YBR008C
  The level of expressed mRNA in the presence of chemical substance/The level of expressed mRNA in the absence of chemical substance: 4.1
Yeast gene YBR145W
  The level of expressed mRNA in the presence of chemical substance/The level of expressed mRNA in the absence of chemical substance: 2.2
Yeast gene YBR244W
  The level of expressed mRNA in the presence of chemical substance/The level of expressed mRNA in the absence of chemical substance: 3.7
Yeast gene YBR293W
  The level of expressed mRNA in the presence of chemical substance/The level of expressed mRNA in the absence of chemical substance: 1.4
Yeast gene YCL035C
  The level of expressed mRNA in the presence of chemical substance/The level of expressed mRNA in the absence of chemical substance: 2.5
Yeast gene YCL069W
  The level of expressed mRNA in the presence of chemical substance/The level of expressed mRNA in the absence of chemical substance: 1.3
Yeast gene YCR083W
  The level of expressed mRNA in the presence of chemical substance/The level of expressed mRNA in the absence of chemical substance: 2.4
Yeast gene YDL100C
  The level of expressed mRNA in the presence of chemical substance/The level of expressed mRNA in the absence of chemical substance: 1.4
Yeast gene YDL168W
  The level of expressed mRNA in the presence of chemical substance/The level of expressed mRNA in the absence of chemical substance: 1.6
Yeast gene YDR256C
  The level of expressed mRNA in the presence of chemical substance/The level of expressed mRNA in the absence of chemical substance: 1.6
Yeast gene YDR453C
  The level of expressed mRNA in the presence of chemical substance/The level of expressed mRNA in the absence of chemical substance: 3.8
Yeast gene YDR513W
  The level of expressed mRNA in the presence of chemical substance/The level of expressed mRNA in the absence of chemical substance: 2.0
Yeast gene YDR538W
  The level of expressed mRNA in the presence of chemical substance/The level of expressed mRNA in the absence of chemical substance: 0.9
Yeast gene YEL027W
  The level of expressed mRNA in the presence of chemical substance/The level of expressed mRNA in the absence of chemical substance: 1.4
Yeast gene YEL065W
  The level of expressed mRNA in the presence of chemical substance/The level of expressed mRNA in the absence of chemical substance: 0.4
Yeast gene YER185W
  The level of expressed mRNA in the presence of chemical substance/The level of expressed mRNA in the absence of chemical substance: 1.6
Yeast gene YFL050C
  The level of expressed mRNA in the presence of chemical substance/The level of expressed mRNA in the absence of chemical substance: 1.0
Yeast gene YGL013C
  The level of expressed mRNA in the presence of chemical substance/The level of expressed mRNA in the absence of chemical substance: 0.8
Yeast gene YGL254W
  The level of expressed mRNA in the presence of chemical substance/The level of expressed mRNA in the absence of chemical substance: 1.3
Yeast gene YGR088W
  The level of expressed mRNA in the presence of chemical substance/The level of expressed mRNA in the absence of chemical substance: 1.3
Yeast gene YGR138C
  The level of expressed mRNA in the presence of chemical substance/The level of expressed mRNA in the absence of chemical substance: 0.9
Yeast gene YGR197C
  The level of expressed mRNA in the presence of chemical substance/The level of expressed mRNA in the absence of chemical substance: 1.5
Yeast gene YGR209C
  The level of expressed mRNA in the presence of chemical substance/The level of expressed mRNA in the absence of chemical substance: 5.0
Yeast gene YGR224W
  The level of expressed mRNA in the presence of chemical substance/The level of expressed mRNA in the absence of chemical substance: 0.9
Yeast gene YHL040C
  The level of expressed mRNA in the presence of chemical substance/The level of expressed mRNA in the absence of chemical substance: 1.1
Yeast gene YHL047C
  The level of expressed mRNA in the presence of chemical substance/The level of expressed mRNA in the absence of chemical substance: 0.5
Yeast gene YHR008C
  The level of expressed mRNA in the presence of chemical substance/The level of expressed mRNA in the absence of chemical substance: 1.6
Yeast gene YHR048W
  The level of expressed mRNA in the presence of chemical substance/The level of expressed mRNA in the absence of chemical substance: 1.7
Yeast gene YHR053C
  The level of expressed mRNA in the presence of chemical substance/The level of expressed mRNA in the absence of chemical substance: 1.5
Yeast gene YHR055C
  The level of expressed mRNA in the presence of chemical substance/The level of expressed mRNA in the absence of chemical substance: 1.5
Yeast gene YIR002C
  The level of expressed mRNA in the presence of chemical substance/The level of expressed mRNA in the absence of chemical substance: 1.1
Yeast gene YIR038C
  The level of expressed mRNA in the presence of chemical substance/The level of expressed mRNA in the absence of chemical substance: 2.5
Yeast gene YJL101C
  The level of expressed mRNA in the presence of chemical substance/The level of expressed mRNA in the absence of chemical substance: 1.0
Yeast gene YJR104C
  The level of expressed mRNA in the presence of chemical substance/The level of expressed mRNA in the absence of chemical substance: 2.0
Yeast gene YKL026C
  The level of expressed mRNA in the presence of chemical substance/The level of expressed mRNA in the absence of chemical substance: 1.8
Yeast gene YKL064W
  The level of expressed mRNA in the presence of chemical substance/The level of expressed mRNA in the absence of chemical substance: 1.1
Yeast gene YKR066C
  The level of expressed mRNA in the presence of chemical substance/The level of expressed mRNA in the absence of chemical substance: 1.5
Yeast gene YKR105C
  The level of expressed mRNA in the presence of chemical substance/The level of expressed mRNA in the absence of chemical substance: 1.2
Yeast gene YKR106W
  The level of expressed mRNA in the presence of chemical substance/The level of expressed mRNA in the absence of chemical substance: 1.7
Yeast gene YLL028W
  The level of expressed mRNA in the presence of chemical substance/The level of expressed mRNA in the absence of chemical substance: 0.7
Yeast gene YLL057C
  The level of expressed mRNA in the presence of chemical substance/The level of expressed mRNA in the absence of chemical substance: 1.1
Yeast gene YLL060C
  The level of expressed mRNA in the presence of chemical substance/The level of expressed mRNA in the absence of chemical substance: 10.6
Yeast gene YLR043C
  The level of expressed mRNA in the presence of chemical substance/The level of expressed mRNA in the absence of chemical substance: 2.1
Yeast gene YLR046C
  The level of expressed mRNA in the presence of chemical substance/The level of expressed mRNA in the absence of chemical substance: 1.3
Yeast gene YML028W
  The level of expressed mRNA in the presence of chemical substance/The level of expressed mRNA in the absence of chemical substance: 2.0
Yeast gene YML116W
  The level of expressed mRNA in the presence of chemical substance/The level of expressed mRNA in the absence of chemical substance: 2.0
Yeast gene YMR015C
  The level of expressed mRNA in the presence of chemical substance/The level of expressed mRNA in the absence of chemical substance: 0.8
Yeast gene YMR038C
  The level of expressed mRNA in the presence of chemical substance/The level of expressed mRNA in the absence of chemical substance: 1.1
Yeast gene YNL239W
  The level of expressed mRNA in the presence of chemical substance/The level of expressed mRNA in the absence of chemical substance: 1.3
Yeast gene YNL241C
  The level of expressed mRNA in the presence of chemical substance/The level of expressed mRNA in the absence of chemical substance: 1.1
Yeast gene YNL259C
  The level of expressed mRNA in the presence of chemical substance/The level of expressed mRNA in the absence of chemical substance: 1.4
Yeast gene YOL158C
  The level of expressed mRNA in the presence of chemical substance/The level of expressed mRNA in the absence of chemical substance: 1.0
Yeast gene YOR031W
  The level of expressed mRNA in the presence of chemical substance/The level of expressed mRNA in the absence of chemical substance: 1.5
Yeast gene YOR153W
  The level of expressed mRNA in the presence of chemical substance/The level of expressed mRNA in the absence of chemical substance: 0.3
Yeast gene YOR247W
  The level of expressed mRNA in the presence of chemical substance/The level of expressed mRNA in the absence of chemical substance: 0.4
Yeast gene YOR251C
  The level of expressed mRNA in the presence of chemical substance/The level of expressed mRNA in the absence of chemical substance: 1.1
Yeast gene YOR273C
  The level of expressed mRNA in the presence of chemical substance/The level of expressed mRNA in the absence of chemical substance: 0.5
Yeast gene YPL163C
  The level of expressed mRNA in the presence of chemical substance/The level of expressed mRNA in the absence of chemical substance: 0.6
Yeast gene YPR200C
  The level of expressed mRNA in the presence of chemical substance/The level of expressed mRNA in the absence of chemical substance: 2.0
